The values below come from patent publication EP4741392A1, “1H-PYRAZOLO[4,3-C]PYRIDINE COMPOUND, AND COMPOSITION THEREOF AND USE THEREOF” (Shenzhen TargetRx Co., Ltd., priority 2023, dated 2025).

Each structure is given as a SMILES string.

One test deals with T1, BTK C481S (Homo sapiens, UniProt Q06187, C481S).
T1 construct: purchased Carna 08-547
As to the kind of experiment: Kinase activity inhibition assay (HTRF TK Kit). It is filed as biochemical. Put shortly:
(§1)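 Cmpd + substrate/ATP + kinase, assembled on ice, shaken 30 s, RT reaction; detection mix (SA-XL665 + TK Ab-cryptate) 1 h RT; 665/620 ratio. Controls: no-kinase blank, kinase + 1% DMSO. IC50 via 4-parameter logistic fit of % inhibition vs log[cmpd].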
For orientation: In TR-FRET formats the signal depends on donor and acceptor labels being close together.

For the next test, the target named is T2, BTK T474I (Homo sapiens, UniProt Q06187, T474I).
T2 construct: purchased SignalChem B10-12HH
As to the kind of experiment: Kinase activity inhibition assay (HTRF TK Kit). It counts as biochemical. The method in brief: as §1

Another test deals with T3, BTK kinase (Homo sapiens, UniProt Q06187).
T3 construct: purchased Invitrogen PV3587
Kind of test: Kinase activity inhibition assay (HTRF TK Kit). It is filed as biochemical. The method in brief:
as §1

The subject of the next test is NIH/3T3 BTK C481S cells. As to the kind of experiment: Phosphor-BTK(Y223) assay, adherent cells. It is filed as cell-based. The following applies: Mus musculus, NIH3T3, phosphorylated BTK Y223, NIH/3T3 BTK C481S cells; read-out: NIH/3T3 BTK-C481S pBTK. The method in brief:
(§2)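 NIH/3T3 cells expressing WT or C481S BTK were pretreated with compound for 0.5 h at 37 °C, then stimulated with 1 mM Na3VO4 (final) for 2 h. Lysates were assayed by HTRF for p-BTK Y223 using the 665/620 nm ratio. IC50 was obtained by nonlinear fit of % inhibition versus 0.5% DMSO control.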

The test system of the next test is NIH/3T3 BTK WT cells. Kind of test: Phosphor-BTK(Y223) assay, adherent cells. It counts as cell-based. The settings on record: Mus musculus, NIH3T3, phosphorylated BTK Y223, NIH/3T3 BTK WT cells; read-out: NIH/3T3 BTK-WT pBTK. Put shortly: as §2

T1 sequence (Q06187 whole entry C481S): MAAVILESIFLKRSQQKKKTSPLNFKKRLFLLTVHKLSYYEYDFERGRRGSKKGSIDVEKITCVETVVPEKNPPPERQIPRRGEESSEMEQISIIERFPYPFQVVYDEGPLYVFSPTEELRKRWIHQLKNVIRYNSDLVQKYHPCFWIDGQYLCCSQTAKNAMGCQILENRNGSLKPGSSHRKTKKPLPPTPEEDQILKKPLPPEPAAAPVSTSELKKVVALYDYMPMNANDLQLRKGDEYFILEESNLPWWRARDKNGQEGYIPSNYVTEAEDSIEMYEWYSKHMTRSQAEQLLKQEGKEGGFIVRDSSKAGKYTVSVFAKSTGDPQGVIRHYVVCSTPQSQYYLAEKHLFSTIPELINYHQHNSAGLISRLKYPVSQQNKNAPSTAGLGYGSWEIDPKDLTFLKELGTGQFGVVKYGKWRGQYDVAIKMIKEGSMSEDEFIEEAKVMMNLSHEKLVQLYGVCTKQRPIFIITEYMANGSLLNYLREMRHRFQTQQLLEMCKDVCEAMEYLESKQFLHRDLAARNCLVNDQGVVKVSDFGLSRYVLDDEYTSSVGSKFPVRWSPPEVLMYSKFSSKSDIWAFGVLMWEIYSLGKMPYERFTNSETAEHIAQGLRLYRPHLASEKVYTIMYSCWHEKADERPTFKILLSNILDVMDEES
T2 sequence (Q06187 whole entry T474I): as the sequence (Q06187 whole entry C481S) above, with T474I, S481C counted along it
T3 sequence (Q06187 whole entry): as the sequence (Q06187 whole entry C481S) above, with S481C counted along it

Consider `COc1ccc(F)cc1C(=O)NCc1ccc(-c2ncc(-c3nc4cnccn4n3)c3[nH]nc(N)c23)cc1` [Example 57, N-(4-(7-([1,2,4]triazolo[1,5-a]pyrazin-2-yl)-3-amino-1H-pyrazolo[4,3-c]pyridin-4-yl)benzyl)-5-fluoro-2-methoxybenzamide], for which the IC50 at BTK C481S is at most 1 nM; on BTK T474I it was 50 to 500 nM; at BTK kinase, 1 to 5 nM; in the test with NIH/3T3 BTK C481S cells it was 5 to 10 nM; with NIH/3T3 BTK WT cells it was at most 5 nM.

Turning to `COc1ccc(F)cc1C(=O)NCc1ccc(-c2ncc(-c3nc4ccccn4n3)c3[nH]nc(N)c23)cc1` [Example 58, N-(4-(7-([1,2,4]triazolo[1,5-a]pyridin-2-yl)-3-amino-1H-pyrazolo[4,3-c]pyridin-4-yl)benzyl)-5-fluoro-2-methoxybenzamide], the IC50 at BTK C481S is 1 to 5 nM; at BTK T474I, 5 to 50 nM; on BTK kinase it was 1 to 5 nM; with NIH/3T3 BTK C481S cells it was at most 5 nM; in the test with NIH/3T3 BTK WT cells it was at most 5 nM.

As to `COCCOc1ccc(-c2cnc(-c3ccc(CNC(=O)c4cc(F)ccc4OC)cc3)c3c(N)n[nH]c23)nc1` [Example 59, N-(4-(3-amino-7-(5-(2-methoxyethoxy)pyridin-2-yl)-1H-pyrazolo[4,3-c]pyridin-4-yl)benzyl)-5-fluoro-2-methoxybenzamide], the IC50 is at most 1 nM at BTK C481S; 5 to 50 nM at BTK T474I; at most 1 nM at BTK kinase; at most 5 nM in the test with NIH/3T3 BTK C481S cells; at most 5 nM in the test with NIH/3T3 BTK WT cells.

With `COc1ccc(F)cc1C(=O)NCc1ccc(-c2ncc(-c3ccc(OCCN(C)C)cn3)c3[nH]nc(N)c23)cc1` [Example 60, N-(4-(3-amino-7-(5-(2-(dimethylamino)ethoxy)pyridin-2-yl)-1H-pyrazolo[4,3-c]pyridin-4-yl)benzyl)-5-fluoro-2-methoxybenzamide], the IC50 was at most 1 nM on BTK C481S; 5 to 50 nM on BTK T474I; at most 1 nM on BTK kinase; at most 5 nM with NIH/3T3 BTK C481S cells; at most 5 nM with NIH/3T3 BTK WT cells.

For the compound `COc1ccc(F)cc1C(=O)NCc1ccc(-c2ncc(-c3ccc(OCCN4CCOCC4)cn3)c3[nH]nc(N)c23)cc1` [Example 61, N-(4-(3-amino-7-(5-(2-morpholinoethoxy)pyridin-2-yl)-1H-pyrazolo[4,3-c]pyridin-4-yl)benzyl)-5-fluoro-2-methoxybenzamide], the IC50 on BTK C481S is at most 1 nM; on BTK T474I, 5 to 50 nM; at BTK kinase, at most 1 nM; with NIH/3T3 BTK C481S cells, at most 5 nM; in the test on NIH/3T3 BTK WT cells, at most 5 nM.

`COc1ccc(F)cc1C(=O)NCc1ccc(-c2ncc(-c3ccc(OCCN4CCCC4)cn3)c3[nH]nc(N)c23)cc1` [Example 62, N-(4-(3-amino-7-(5-(2-(pyrrolidin-1-yl)ethoxy)pyridin-2-yl)-1H-pyrazolo[4,3-c]pyridin-4-yl)benzyl)-5-fluoro-2-methoxybenzamide]: the IC50 at BTK C481S was 1 to 5 nM; on BTK T474I, 5 to 50 nM; on BTK kinase it was 1 to 5 nM; in the test with NIH/3T3 BTK C481S cells, at most 5 nM; in the test on NIH/3T3 BTK WT cells, at most 5 nM.

`COc1ccc(F)cc1C(=O)NCc1ccc(-c2ncc(-c3ccc(C(C)(C)O)cn3)c3[nH]nc(N)c23)cc1` [Example 65, N-(4-(3-amino-7-(5-(2-hydroxypropan-2-yl)pyridin-2-yl)-1H-pyrazolo[4,3-c]pyridin-4-yl)benzyl)-5-fluoro-2-methoxybenzamide]: the IC50 is 1 to 5 nM on BTK C481S; 1 to 5 nM on BTK T474I; 1 to 5 nM on BTK kinase; 5 to 10 nM in the test on NIH/3T3 BTK C481S cells; at most 5 nM with NIH/3T3 BTK WT cells.

Turning to `COc1ccc(F)cc1C(=O)NCc1ccc(-c2ncc(-c3ccc(CN4CCCCC4)cn3)c3[nH]nc(N)c23)cc1` [Example 66, N-(4-(3-amino-7-(5-(piperidin-1-ylmethyl)pyridin-2-yl)-1H-pyrazolo[4,3-c]pyridin-4-yl)benzyl)-5-fluoro-2-methoxybenzamide], the IC50 on BTK C481S is at most 1 nM; at BTK T474I, 5 to 50 nM; at BTK kinase, at most 1 nM; with NIH/3T3 BTK C481S cells, at most 5 nM; with NIH/3T3 BTK WT cells, at most 5 nM.

On to `COc1ccc(F)cc1C(=O)NCc1ccc(-c2ncc(-c3ccc(CN4CCOCC4)cn3)c3[nH]nc(N)c23)cc1` [Example 67, N-(4-(3-amino-7-(5-(morpholinomethyl)pyridin-2-yl)-1H-pyrazolo[4,3-c]pyridin-4-yl)benzyl)-5-fluoro-2-methoxybenzamide], for which the IC50 at BTK C481S is at most 1 nM; on BTK T474I, 50 to 500 nM; on BTK kinase, at most 1 nM; with NIH/3T3 BTK C481S cells it was at most 5 nM; in the test on NIH/3T3 BTK WT cells, at most 5 nM.

Regarding `COc1ccc(F)cc1C(=O)NCc1ccc(-c2ncc(-c3ccc(CN4CCN(C)CC4)cn3)c3[nH]nc(N)c23)cc1` [Example 68, N-(4-(3-amino-7-(5-((4-methylpiperazin-1-yl)methyl)pyridin-2-yl)-1H-pyrazolo[4,3-c]pyridin-4-yl)benzyl)-5-fluoro-2-methoxybenzamide], the IC50 was 1 to 5 nM on BTK C481S; 5 to 50 nM at BTK T474I; 1 to 5 nM at BTK kinase; at most 5 nM in the test on NIH/3T3 BTK C481S cells; at most 5 nM in the test on NIH/3T3 BTK WT cells.

Consider `COc1ccc(F)cc1C(=O)NCc1ccc(-c2ncc(-c3cc4ccccn4n3)c3[nH]nc(N)c23)cc1` [Example 69, N-(4-(3-amino-7-(pyrazolo[1,5-a]pyridin-2-yl)-1H-pyrazolo[4,3-c]pyridin-4-yl)benzyl)-5-fluoro-2-methoxybenzamide], for which the IC50 at BTK C481S was at most 1 nM; at BTK T474I it was 5 to 50 nM; at BTK kinase, at most 1 nM; in the test with NIH/3T3 BTK C481S cells, at most 5 nM; with NIH/3T3 BTK WT cells it was at most 5 nM.

With `COc1ccc(F)cc1C(=O)NCc1ccc(-c2ncc(-c3cnn4cccnc34)c3[nH]nc(N)c23)cc1` [Example 70, N-(4-(3-amino-7-(pyrazolo[1,5-a]pyrimidin-3-yl)-1H-pyrazolo[4,3-c]pyridin-4-yl)benzyl)-5-fluoro-2-methoxybenzamide], the IC50 was 1 to 5 nM at BTK C481S; 50 to 500 nM on BTK T474I; 1 to 5 nM at BTK kinase; at most 5 nM in the test on NIH/3T3 BTK C481S cells; at most 5 nM with NIH/3T3 BTK WT cells.

Regarding `COc1ccc(F)cc1C(=O)NCc1ccc(-c2ncc(-c3cc4n(n3)CCN(C)C4)c3[nH]nc(N)c23)cc1` [Example 71, N-(4-(3-amino-7-(5-methyl-4,5,6,7-tetrahydropyrazolo[1,5-a]pyrazin-2-yl)-1H-pyrazolo[4,3-c]pyridin-4-yl)benzyl)-5-fluoro-2-methoxybenzamide], the IC50 on BTK C481S is at most 1 nM; on BTK T474I, 5 to 50 nM; on BTK kinase it was 1 to 5 nM; in the test with NIH/3T3 BTK C481S cells, at most 5 nM; in the test with NIH/3T3 BTK WT cells it was at most 5 nM.

On to `CCN1CCn2nc(-c3cnc(-c4ccc(CNC(=O)c5cc(F)ccc5OC)cc4)c4c(N)n[nH]c34)cc2C1` [Example 72, N-(4-(3-amino-7-(5-ethyl-4,5,6,7-tetrahydropyrazolo[1,5-a]pyrazin-2-yl)-1H-pyrazolo[4,3-c]pyridin-4-yl)benzyl)-5-fluoro-2-methoxybenzamide], for which the IC50 on BTK C481S is at most 1 nM; on BTK T474I, 5 to 50 nM; at BTK kinase, at most 1 nM; in the test with NIH/3T3 BTK C481S cells it was at most 5 nM; with NIH/3T3 BTK WT cells, at most 5 nM.
